US10525220B2, “Droplet delivery device for delivery of fluids to the pulmonary system and methods of use” (PNEUMA RESPIRATORY, INC., priority 2016, dated 2020)
Values joined by “and” are separate entries in the source; they are usually repeats but may differ in a detail not shown here. Equal entries are not always repeated. One block for each substance: values may come before it.

Tests used:
Format in all cases: physicochemical
[1] = Gel electrophoresis stability of active agent after droplet generation
Description: To determine the stability of active agent after droplet generation, the generated stream of droplets including the active agent is collected and the molecular weight of the active agent is verified using gel electrophoresis.

[2] = Size exclusion chromatography stability study after aerosol generation with test device
Description: Alternately, to determine the stability of active agent after droplet generation, the generated stream of droplets including the active agent may be collected and […] may be employed to monitor for any changes in large molecule aggregation and protein fragment content. Soluble protein aggregates and protein fragment content may be calculated by comparing respective peak area under the SEC-HPLC curve of dispensed protein solutions with controls (solutions remaining in the device reservoir). Drug solutions for testing include Enbrel, (ENBREL® single-use prefilled syringes in 25 mg (0.51 mL of a 50 mg/mL solution of etanercept), and insulin, (Humalog, 200 units/ml, 3 ml […] is performed with a YarraTM 3 um SEC-2000 LC column 300×7.8 mm, SecurityGuard cartridge kit and SecurityGuard cartridges GFC-2000, 4×3 mm ID. Fifty microliters of Enbrel from the syringe (ENBREL® single-use prefilled syringes in 25 mg/0.51 mL of a 50 mg/mL solution of etanercept) is diluted (4:1) (4 parts, 200 mcl of the mobile phase buffer solution to 1 part, 50 mcl Enbrel from syringe). Fifty microliter of the diluted Enbrel is injected and separation was performed at a flow rate of 1.0 ml/min. The mobile phase buffer system included a PHOS. BUFF. SALINE. […] UV detection is performed at 280 nm. […] Aerosol collection and SEC is performed in a similar fashion as for the Enbrel analysis and aerosol collection. […] Fifty microliters of the collected aerosol spray is injected onto the SEC column for analysis, while 50 mcl of the […] insulin solution is injected onto the SEC column for control samples.

[3] = Gravimetric analysis of delivered dose per actuation; conditions: for solution mass per dose (actuation), average of five doses: ampule weighed before and after dosing
Protocol: Gravimetric analysis was performed by weighing the Enbrel solution filled ampule before and after dosing. The average of five doses (actuations) were analyzed with an average of 4.25 mg+/−0.15 mg. The total delivered dose of Enbrel per actuation is therefore […] per actuation.
Gravimetric analysis was performed by weighing the Insulin solution filled ampule before and after dosing. The average of five doses (actuations) were analyzed with an average of 5.01 mg+/−0.53 mg. The total delivered dose of Insulin per actuation is therefore 34.8 mcg per actuation.

[4] = Anderson Cascade Impactor testing of Albuterol sulfate aerosol from droplet delivery device (Example B)
[5] = Enbrel aerosolized, average of S1 and S2
[6] = Albuterol 0.5%, 28.3 lpm, 10 actuations
[7] = Albuterol 0.5%, 28.3 lpm, N = 30
[8] = Albuterol 0.5%, Anderson Cascade, 28.3 lpm, 10 actuations
[9] = Pre-separator, cut diam. 10 μm, Albuterol 0.5%, 28.3 lpm, 10 actuations

Substance: adalimumab
change in electrophoretic mobility (molecular weight) of post-aerosol active agent vs control [1]: negligible change

Substance: etanercept [Enbrel]
Peak Area %, Peak 2 ([2]; Enbrel 10 mg/ml, aerosolized): 90.789% and 92.112%
Peak Area %, Peak 3 ([2]; Enbrel 10 mg/ml, aerosolized): 0.424% and 0.361%
Peak Area %, Peak 4 ([2]; Enbrel 10 mg/ml, aerosolized): 0.357% and 0.352%
Peak Area %, Peak 5 ([2]; Enbrel 10 mg/ml, aerosolized): 5.130% and 3.428% and 5.123%
Peak Area %, Peak 1 ([2]; Enbrel 10 mg/ml, aerosolized with test device): 2.796% and 3.476%
Peak Area %, Peak 2 ([2]; Enbrel 10 mg/ml, control): 96.676% and 95.909%
Peak Area %, Peak 3 ([2]; Enbrel 10 mg/ml, control): 0.373% and 0.351%
Peak Area %, Peak 4 ([2]; Enbrel 10 mg/ml, control): 0%
Peak Area %, Peak 5 ([2]; Enbrel 10 mg/ml, control): 0%
Peak 4, Avg. [2, 5]: 0.3545
Peak 5, Avg. [2, 5]: 4.2755
Peak Area %, Peak 1 ([2]; Enbrel diluted 4:1 (10 mg/ml), control): 2.428% and 3.041%
dose forming molecular fragments with elution times of 13 and 25 minutes ([2]; Enbrel, test device): 4.6%
structurally unchanged after delivering an aerosol dose ([2]; Enbrel, test device): 95.4%
total delivered dose per actuation [3]: 42.5 mcg per actuation
solution mass per dose (actuation), average of five doses [3]: 4.25 mg
change in electrophoretic mobility (molecular weight) of post-aerosol active agent vs control [1]: negligible change

Substance: Insulin: insulin, Humalog, 200 units/ml, 3 ml kwikpens
Peak Area %, Peak 1 ([2]; Insulin 200 U/ml, aerosolized): 27.881% and 28.721%
Peak Area %, Peak 2 ([2]; Insulin 200 U/ml, aerosolized): 69.780% and 67.807%
Peak Area %, Peak 3 ([2]; Insulin 200 U/ml, aerosolized): 2.184% and 2.797%
Peak Area %, Peak 2 ([2]; Insulin 200 U/ml, control): 69.630%
Peak Area %, Peak 3 ([2]; Insulin 200 U/ml, control): 0%
Peak 3, Avg. ([2]; Insulin aerosolized, average of S1 and S2): 2.4905
Peak Area %, Peak 1 ([2]; Insulin from Kwikpen 200 U/ml, control): 29.926%
ejected dose forming a fragment which elutes at ~25 minutes ([2]; Insulin, test device): 2.5%
ejected dose structurally unchanged ([2]; Insulin, test device): 97.5%
total delivered dose per actuation [3]: 34.8 mcg per actuation
solution mass per dose (actuation), average of five doses [3]: 5.01 mg

Coarse Particles (>4.7 um) [4, 6]: 203.7 µg
Coarse Particules Fraction (>4.7 um) [4, 6]: 22.7%
Fine Particles (<0.4 um) [4, 6]: 31.0 µg
Fine Particule Fraction (<0.4 um) [4, 6]: 3.5%
Mouthpiece Losses [4, 6]: 12.2%
Respirable Dose (0.4-4.7 um) [4, 6]: 621.9 µg
Respirable Fraction (0.4-4.7 um) [4, 6]: 69.3%
Geometric StdDev (GSD) [4, 7]: 1.96
MMAD [4, 7]: 1.93 um
Mouthpiece Losses [4, 8]: 109.4 µg
droplets of an average diameter of less than about 5 μm [4, 8]: over 75%
droplets with an average diameter of less than about 4 μm [4, 8]: over 70%
Cum. % < ([4]; FILTER stage): 0.00%
Cum. % > ([4]; FILTER stage): 100.00%
Cum. % < [4, 9]: 100.00%
Cum. % > [4, 9]: 0.00%
Cum. % < ([4]; stage 0, cut diam. 9 μm): 88.95%
Cum. % < ([4]; stage 1, cut diam. 5.8 μm): 76.22%
Cum. % > ([4]; stage 1, cut diam. 5.8 μm): 23.78%
Cum. % < ([4]; stage 2, cut diam. 4.7 μm): 71.05%
Cum. % > ([4]; stage 2, cut diam. 4.7 μm): 28.95%
Cum. % < ([4]; stage 3, cut diam. 3.3 μm): 64.29%
Cum. % > ([4]; stage 3, cut diam. 3.3 μm): 35.71%
Cum. % < ([4]; stage 4, cut diam. 2.1 μm): 52.89%
Cum. % > ([4]; stage 4, cut diam. 2.1 μm): 47.11%
Cum. % < ([4]; stage 5, cut diam. 1.1 μm): 21.05%
Cum. % > ([4]; stage 5, cut diam. 1.1 μm): 78.95%
Cum. % < ([4]; stage 6, cut diam. 0.7 μm): 8.47%
Cum. % > ([4]; stage 6, cut diam. 0.7 μm): 91.53%
Cum. % > ([4]; stage 7, cut diam. 0.4 μm): 96.38%
Substance: Albuterol sulfate
